Source: US20230248833A1, “COMPOUND HAVING BTK KINASE DEGRADING ACTIVITY, AND PREPARATION METHOD AND PHARMACEUTICAL USE THEREFOR” (SICHUAN HAISCO PHARMACEUTICAL CO., LTD., priority 2020, published 2023)
Read-outs that look alike come from different tables or passages of the source.

Assays:
[1] = target: T1, hERG potassium ion channel (Homo sapiens, UniProt Q12809); assay: Effect on hERG potassium ion channel, manual patch-clamp in CHO cells; type: cell-based; details: CHO cells stably expressing hERG, whole cell patch-clamp, room temperature; read-out: IC50 value of inhibitory effect on hERG potassium channel current
T1 construct: expressed in transfected cells
T1 sequence (Q12809 whole entry): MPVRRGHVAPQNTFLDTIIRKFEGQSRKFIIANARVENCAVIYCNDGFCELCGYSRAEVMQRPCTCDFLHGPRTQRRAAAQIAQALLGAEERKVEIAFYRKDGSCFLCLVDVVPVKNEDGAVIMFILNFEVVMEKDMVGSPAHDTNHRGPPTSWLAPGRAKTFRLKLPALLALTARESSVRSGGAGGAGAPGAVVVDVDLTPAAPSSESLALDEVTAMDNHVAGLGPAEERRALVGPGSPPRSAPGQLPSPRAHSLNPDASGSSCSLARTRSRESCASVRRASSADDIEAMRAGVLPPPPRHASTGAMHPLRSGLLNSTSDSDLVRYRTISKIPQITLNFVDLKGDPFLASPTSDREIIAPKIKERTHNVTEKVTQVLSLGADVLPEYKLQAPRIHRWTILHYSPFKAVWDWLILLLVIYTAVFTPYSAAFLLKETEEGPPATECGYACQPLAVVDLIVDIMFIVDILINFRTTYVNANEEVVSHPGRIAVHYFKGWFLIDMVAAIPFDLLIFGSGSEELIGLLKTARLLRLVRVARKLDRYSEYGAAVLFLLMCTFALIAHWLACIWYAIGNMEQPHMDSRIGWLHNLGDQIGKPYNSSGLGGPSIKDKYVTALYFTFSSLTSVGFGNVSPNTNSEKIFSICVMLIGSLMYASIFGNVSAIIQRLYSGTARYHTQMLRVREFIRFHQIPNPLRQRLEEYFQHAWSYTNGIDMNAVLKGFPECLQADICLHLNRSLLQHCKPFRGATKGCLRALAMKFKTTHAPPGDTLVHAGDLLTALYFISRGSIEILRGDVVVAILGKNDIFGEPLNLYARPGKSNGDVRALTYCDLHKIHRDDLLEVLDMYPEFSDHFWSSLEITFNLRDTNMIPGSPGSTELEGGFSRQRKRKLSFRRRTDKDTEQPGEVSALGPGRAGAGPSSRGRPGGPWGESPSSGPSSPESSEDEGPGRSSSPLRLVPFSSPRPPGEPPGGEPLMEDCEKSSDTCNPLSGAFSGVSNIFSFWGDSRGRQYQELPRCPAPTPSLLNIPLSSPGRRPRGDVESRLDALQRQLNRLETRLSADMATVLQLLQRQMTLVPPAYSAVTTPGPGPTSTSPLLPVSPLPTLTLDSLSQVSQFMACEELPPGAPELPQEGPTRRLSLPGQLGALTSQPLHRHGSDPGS
Excerpt: Experimental platform: electrophysiological manual patch-clamp system
Cell line: Chinese hamster ovary (CHO) cells stably expressing hERG potassium ion channel
Experimental method: In CHO (Chinese Hamster Ovary) cells stably expressing hERG potassium channel, whole cell patch-clamp technique was used to recorded hERG potassium channel current at room temperature. The glass microelectrode is made of a glass electrode blank (BF150-86-10, Sutter) by a puller. The tip resistance after filling the liquid in the electrode is about 2-5 MQ. The glass microelectrode can be connected to the patch-clamp amplifier by inserting the glass microelectrode into an amplifier probe. The clamping voltage and data recording are controlled and recorded by the pClamp 10 software through a computer. The sampling frequency is 10 kHz, and the filtering frequency is 2 kHz. […]
Data analysis processing was carried out by using pClamp 10, GraphPad Prism 5 and Excel software. The inhibition degree of hERG potassium current (peak value of hERG tail current induced at −50 mV) at different compound concentrations was calculated by the following formula: […]
Compound IC50 was calculated using GraphPad Prism 5 software by fitting according to the following equation: […]

Mino cells = assay: Inhibition of cell proliferation, Mino cells (Cell Viability Assay, 72 h); type: cell-based, human; details: Homo sapiens, MINO, 72 h
Experimental: (§1) SU-DHL-4, Mino, and SU-DHL-6 cells, in the culture medium of RPMI1640+10% FBS, were cultured in an incubator at 37° C. under 5% CO2. Cells were plated in a 96-well plate. Specifically, SU-DHL-4 cells were at 20000/well, Mino and SU-DHL-6 cells were at 5000/well, with 90 μL/well. 10 μL of the compounds at different concentrations were added to each well. There were 3 replicate wells for each concentration, and the last column, added with DMSO, was used as a vehicle control group. The cultures were continued for 72 hours at 37° C. under 5% CO2. After 72 hours, 100 μL of detection reagent (Cell Viability Assay, Promega, G7573) was added to each well, and the cultures were uniformly mixed for 2 minutes, and incubated at room temperature for 10 minutes. The […] signal value was measured with a microplate reader (PHERAstar FSX). The IC50 value of the compound on cell proliferation inhibition was calculated using origin9.2 software, and the inhibition rate at the highest concentration of the compound (Max inhi.%) was calculated according to formula (1).
(§2) Max inhi.%=(1−T72administration/T72vehicle)×100 Formula (1).

SU-DHL-6 cells = assay: Inhibition of cell proliferation, SU-DHL-6 cells (Cell Viability Assay, 72 h); type: cell-based, human
Experimental: as §1, §2

[2] = Pharmacokinetic experiment in rats; type: in vivo; details: male, SD, rat, po, plasma, i.g. (20 mg/kg); for AUC(0-t): single dose
Experimental: Experimental objective: In this experiment, a single dose of each test compound was administered to SD rats intravenously and intragastrically, the concentrations of the test compound in plasma of rats were measured, and the pharmacokinetic characteristics and bioavailability of the test compound in rats were evaluated.
Experimental animals: Male SD rats, about 200 g, 6-8 weeks old, 6 rats/compound. Rats were purchased from Hunan SJA Laboratory Animal Co., Ltd, with the laboratory animal production license number of SCXK (Xiang) 2019-004.
Experimental method: On the day of the experiment, 6 SD rats were randomly grouped according to their body weight. The animals were fasted with water available for 12 to 14 hours one day before the administration of a test compound, and were fed 4 hours after the administration.
Before and after the administration, […] of blood was taken from the orbit of the rats under isoflurane anesthesia, and placed in an EDTAK2 centrifuge tube. Centrifugation was carried out at 5000 rpm at 4° C. for 10 min, and the plasma was collected.
Time points for sample collection in G1&G2 groups comprise
Before analysis and detection, all samples were stored at −80° C. The samples were detected by HPLC-MS/MS.

BTK protein = target: T2, BTK protein (Mus musculus, UniProt P35991); assay: Detection of BTK protein degradation in spleen of mice; type: in vivo; details: po, female ICR mice, 3 consecutive days of intragastric administration, read-out: DD50 value of compounds on BTK protein degradation in spleen of mice
T2 construct: from tissue; host or cells: spleen of female ICR mice
T2 sequence (P35991 whole entry): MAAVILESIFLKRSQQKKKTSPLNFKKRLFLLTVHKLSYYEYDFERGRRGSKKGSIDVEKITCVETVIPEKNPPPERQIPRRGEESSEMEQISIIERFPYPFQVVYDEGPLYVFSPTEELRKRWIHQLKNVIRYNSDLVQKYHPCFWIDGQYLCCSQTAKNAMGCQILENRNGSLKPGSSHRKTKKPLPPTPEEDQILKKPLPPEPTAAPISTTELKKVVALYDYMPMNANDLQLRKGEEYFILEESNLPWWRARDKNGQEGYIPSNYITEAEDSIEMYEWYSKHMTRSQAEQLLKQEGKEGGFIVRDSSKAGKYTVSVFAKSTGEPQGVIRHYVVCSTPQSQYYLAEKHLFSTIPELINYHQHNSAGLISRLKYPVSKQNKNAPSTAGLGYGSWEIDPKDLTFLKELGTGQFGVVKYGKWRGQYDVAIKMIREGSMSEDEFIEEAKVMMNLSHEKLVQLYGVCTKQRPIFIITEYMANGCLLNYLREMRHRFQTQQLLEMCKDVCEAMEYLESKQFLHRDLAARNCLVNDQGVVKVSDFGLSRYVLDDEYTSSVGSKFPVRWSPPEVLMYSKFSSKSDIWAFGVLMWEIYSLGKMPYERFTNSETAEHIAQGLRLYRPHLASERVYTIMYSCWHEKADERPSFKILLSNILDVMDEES
Experimental: Female ICR mice, 6-8 weeks old, were purchased from BEIJING VITAL RIVER LABORATORY ANIMAL TECHNOLOGY CO., LTD, and the experiment was started after 3 days of adaptation. After 3 consecutive days of intragastric administration of different doses of the compound, the spleen of mice was taken, the spleen cells were collected, and RIPA lysis buffer (Beyotime, Cat. P0013B) was added. The cells were lysed on ice for 15 minutes, and centrifuged at 12000 rpm at 4° C. for 10 minutes. The protein sample of the supernatant was collected, and the protein was quantified by using the BCA kit (Beyotime, Cat. P0009), and then the protein was diluted to 0.25 mg/mL. The expressions of BTK (CST, Cat. 8547S) and the internal reference β-actin (CST, Cat. 3700S) were detected using a fully automated western blot quantitative analyzer (Proteinsimple). The expression level of BTK relative to the internal reference was calculated using Compass software, and the DD50 value was calculated using Origin9.2 software according to formula (4). Specifically, the BTKadministration denoted the expression level of BTK in administration groups at different doses, and the BTKvehicle denoted the expression level of BTK in the vehicle control group. BTK %=BTKadministration/BTKvehicle×100% formula (4)

BTK = target: T3, BTK (Homo sapiens, UniProt Q06187); assay: Detection of BTK degradation in Mino cells (automated western blot); type: cell-based; details: 48 hours
T3 construct: endogenous in cells; host or cells: Mino human mantle cell lymphoma cells (ATCC)
T3 sequence (Q06187 whole entry): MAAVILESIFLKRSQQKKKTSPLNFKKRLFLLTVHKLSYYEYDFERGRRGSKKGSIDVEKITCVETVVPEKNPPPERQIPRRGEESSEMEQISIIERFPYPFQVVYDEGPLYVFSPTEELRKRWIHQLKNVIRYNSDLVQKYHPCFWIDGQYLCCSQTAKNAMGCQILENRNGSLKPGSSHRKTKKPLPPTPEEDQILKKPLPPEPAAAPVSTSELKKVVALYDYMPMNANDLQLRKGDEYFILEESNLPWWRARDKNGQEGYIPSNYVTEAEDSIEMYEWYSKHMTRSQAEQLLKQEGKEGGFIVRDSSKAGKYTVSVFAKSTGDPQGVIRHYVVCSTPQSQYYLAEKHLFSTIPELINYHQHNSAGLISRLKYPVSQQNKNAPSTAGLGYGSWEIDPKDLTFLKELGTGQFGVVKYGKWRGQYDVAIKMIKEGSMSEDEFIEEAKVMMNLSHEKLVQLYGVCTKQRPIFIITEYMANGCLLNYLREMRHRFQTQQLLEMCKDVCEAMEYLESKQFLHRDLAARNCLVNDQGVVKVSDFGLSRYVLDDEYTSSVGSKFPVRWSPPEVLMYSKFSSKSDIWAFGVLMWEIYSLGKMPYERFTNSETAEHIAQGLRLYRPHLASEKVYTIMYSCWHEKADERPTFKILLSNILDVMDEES
Experimental: Mino human mantle cell lymphoma cell line was purchased from ATCC and cultured under the following conditions: RPMI-1640+15% FBS+1% double antibody in a 37° C., 5% CO2 incubator. Cells were plated in a 6-well plate, with 5×10^5 cells/well. After plating, the compounds at different concentrations were added and cultured in an incubator at 37° C. under 5% CO2 for 48 hours. After culturing, the cells were collected, and RIPA lysis buffer (Beyotime, Cat. P0013B) was added. The cells were lysed on ice for 15 minutes, and centrifuged at 12000 rpm at 4° C. for 10 minutes. The protein sample of the supernatant was collected, and the protein was quantified by using the BCA kit (Beyotime, Cat. P0009), and then the protein was diluted to 0.25 mg/mL. The expressions of BTK (CST, Cat. 8547S) and the internal reference β-actin (CST, Cat. 3700S) were detected using a fully automated western blot quantitative analyzer (Proteinsimple) with a kit (Protein simple, Cat. SM-W004). The expression level of BTK relative to the internal reference was calculated using Compass software, and the DC50 value was calculated using Origin9.2 software according to formula (3). Specifically, the BTKadministration denoted the expression level of BTK in administration groups at different doses, and the BTKvehicle denoted the expression level of BTK in the vehicle control group. […]

SU-DHL-4 cells = assay: Inhibition of cell proliferation, SU-DHL-4 cells (Cell Viability Assay, 72 h); type: cell-based, human
Experimental: as §1, §2

Aiolos = target: T4, Aiolos (Homo sapiens, UniProt Q9UKT9); assay: Detection of Aiolos degradation in Mino cells (automated western blot); type: cell-based; details: 48 hours
T4 construct: endogenous in cells; host or cells: Mino human mantle cell lymphoma cells (ATCC)
T4 sequence (Q96SW2 whole entry partner): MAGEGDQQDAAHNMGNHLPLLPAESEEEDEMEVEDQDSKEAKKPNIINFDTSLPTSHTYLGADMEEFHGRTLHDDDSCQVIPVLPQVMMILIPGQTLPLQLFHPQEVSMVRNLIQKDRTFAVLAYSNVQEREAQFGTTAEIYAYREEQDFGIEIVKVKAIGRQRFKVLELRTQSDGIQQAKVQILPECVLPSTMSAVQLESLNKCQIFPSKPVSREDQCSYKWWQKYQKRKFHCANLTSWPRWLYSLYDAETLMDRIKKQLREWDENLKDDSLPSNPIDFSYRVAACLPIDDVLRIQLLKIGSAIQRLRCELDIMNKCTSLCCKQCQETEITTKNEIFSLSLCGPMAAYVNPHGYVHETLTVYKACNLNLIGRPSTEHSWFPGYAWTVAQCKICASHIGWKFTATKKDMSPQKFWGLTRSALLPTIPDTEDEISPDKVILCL
T4 sequence (Q16531 whole entry partner): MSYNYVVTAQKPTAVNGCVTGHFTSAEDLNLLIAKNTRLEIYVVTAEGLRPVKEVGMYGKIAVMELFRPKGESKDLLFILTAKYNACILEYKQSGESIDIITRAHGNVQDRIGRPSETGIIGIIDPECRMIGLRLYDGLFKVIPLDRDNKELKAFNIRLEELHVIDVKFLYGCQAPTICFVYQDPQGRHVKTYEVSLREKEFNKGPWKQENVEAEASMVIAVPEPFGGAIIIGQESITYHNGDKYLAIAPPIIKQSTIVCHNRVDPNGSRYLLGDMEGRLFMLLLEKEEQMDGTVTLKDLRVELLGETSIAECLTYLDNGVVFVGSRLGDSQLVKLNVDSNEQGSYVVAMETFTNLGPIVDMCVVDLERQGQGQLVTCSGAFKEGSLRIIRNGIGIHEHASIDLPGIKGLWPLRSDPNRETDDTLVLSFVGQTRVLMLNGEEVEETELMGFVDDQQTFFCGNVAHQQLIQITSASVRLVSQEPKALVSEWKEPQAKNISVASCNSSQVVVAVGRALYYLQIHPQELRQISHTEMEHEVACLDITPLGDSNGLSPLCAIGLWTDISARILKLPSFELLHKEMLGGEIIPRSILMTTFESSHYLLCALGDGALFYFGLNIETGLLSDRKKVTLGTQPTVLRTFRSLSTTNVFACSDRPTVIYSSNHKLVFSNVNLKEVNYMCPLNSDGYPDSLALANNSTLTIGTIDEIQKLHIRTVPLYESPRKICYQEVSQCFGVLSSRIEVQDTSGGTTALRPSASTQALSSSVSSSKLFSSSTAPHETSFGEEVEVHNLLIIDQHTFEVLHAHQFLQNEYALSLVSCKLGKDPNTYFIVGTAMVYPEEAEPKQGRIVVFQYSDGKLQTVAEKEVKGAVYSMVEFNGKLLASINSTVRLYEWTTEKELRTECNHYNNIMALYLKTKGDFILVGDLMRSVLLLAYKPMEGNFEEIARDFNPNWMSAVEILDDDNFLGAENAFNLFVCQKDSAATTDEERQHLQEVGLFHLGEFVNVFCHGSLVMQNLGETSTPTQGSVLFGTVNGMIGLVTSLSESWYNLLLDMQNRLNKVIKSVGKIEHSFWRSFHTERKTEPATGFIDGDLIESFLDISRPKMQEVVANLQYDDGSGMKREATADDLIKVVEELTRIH
T4 sequence (Q9UKT9 whole entry): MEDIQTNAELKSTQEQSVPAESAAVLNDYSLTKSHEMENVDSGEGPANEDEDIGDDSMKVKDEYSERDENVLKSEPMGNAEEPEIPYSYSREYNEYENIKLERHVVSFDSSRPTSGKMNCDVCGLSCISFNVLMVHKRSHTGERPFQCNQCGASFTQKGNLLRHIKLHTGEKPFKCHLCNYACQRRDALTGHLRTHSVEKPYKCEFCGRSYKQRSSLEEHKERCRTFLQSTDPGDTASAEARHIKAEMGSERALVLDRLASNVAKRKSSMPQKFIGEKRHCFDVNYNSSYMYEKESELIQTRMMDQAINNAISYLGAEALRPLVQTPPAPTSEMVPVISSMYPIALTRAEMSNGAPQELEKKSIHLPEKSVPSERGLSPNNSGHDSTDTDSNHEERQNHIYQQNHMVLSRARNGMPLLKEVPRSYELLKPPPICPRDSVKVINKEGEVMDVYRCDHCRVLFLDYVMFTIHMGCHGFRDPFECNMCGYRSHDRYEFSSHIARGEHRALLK
Experimental: Mino is a human mantle cell lymphoma cell line purchased from ATCC and cultured under the following conditions: RPMI-1640+15% FBS+1% double antibody in a 37° C., 5% CO2 incubator. Cells were plated in a 6-well plate, with 5×10^5 cells/well. After plating, the compounds at different concentrations were added and cultured in an incubator at 37° C. under 5% CO2 for 48 hours. After culturing, the cells were collected, and RIPA lysis buffer (Beyotime, Cat. P0013B) was added. The cells were lysed on ice for 15 minutes, and centrifuged at 12000 rpm at 4° C. for 10 minutes. The protein sample of the supernatant was collected, and the protein was quantified by using the BCA kit (Beyotime, Cat. P0009), and then the protein was diluted to 0.25 mg/mL. The expressions of Aiolos (CST, Cat. 15103S) and the internal reference GAPDH (CST, Cat. 5174S) were detected using a fully automated western blot quantitative analyzer (Proteinsimple). The expression level of Aiolos relative to the internal reference was calculated using Compass software, and the DC50 value was calculated using Origen9.2 software according to formula (5). Specifically, the Aiolosadministration denoted the expression level of Aiolos in administration groups at different doses, and the Aiolosvehicle denoted the expression level of Aiolos in the vehicle control group.
Aiolos %=Aiolosadministration/Aiolosvehicle×100% formula (5)

IC50 (SU-DHL-6 cells; Homo sapiens, SU-DHL-6, 72 h) [nM] | AUC(0-t) [2] [ng·h/mL] | ED50 (BTK protein) [mg/kg] | DC50 (BTK) [nM] | IC50 (SU-DHL-4 cells) [nM] | IC50 (SU-DHL-4 cells; listed as compound 85) [nM] | IC50 (SU-DHL-6 cells) [nM] | bioavailability [2] [%] | DC50 (Aiolos) [nM] | Structure (SMILES) | IC50 [1] [nM] | IC50 (Mino cells) [nM]
100 | 3820 ± 811 |  |  |  |  |  |  |  | Nc1ncnc2c1c(-c1ccc(Oc3ccccc3)cc1)nn2[C@H]1CCN(C2CN(CC3(F)CN(c4cc5c(cc4F)C(=O)N(C4CCC(=O)NC4=O)C5=O)C3)C2)C[C@H]1F (stereo partly drawn) [Compound 113, 5-(3-((3-((3R,4S)-4-(4-amino-3-(4-phenoxyphenyl)-1H-pyrazolo[3,4-d]pyrimidin-1-yl)-3-fluoropiperidin-1-yl)azetidin-1-yl)methyl)-3-fluoroazetidin-1-yl)-2-(2,6-dioxopiperidin-3-yl)-6-fluoroisoindoline-1,3-dione] | > 40000 | 61
 | 3030 ± 982 | 3.3 | 1.6 | 624 | 10 to 1000 | 26 | 17.4 ± 5.6 | ≥ 1000 | Nc1ncnc2c1c(-c1ccc(Oc3ccccc3)cc1)nn2C1CCN(C2CN(CC3CN(c4ccc5c(c4)C(=O)N(C4CCC(=O)NC4=O)C5=O)C3)C2)CC1 (stereo not drawn) [Compound 85, 5-(3-((3-(4-(4-amino-3-(4-phenoxyphenyl)-1H-pyrazolo[3,4-d]pyrimidin-1-yl)piperidin-1-yl)azetidin-1-yl)methyl)azetidin-1-yl)-2-(2,6-dioxopiperidin-3-yl)isoindoline-1,3-dione] |  | 32
95 | 3210 ± 728 |  |  |  |  |  | 14.4 ± 3.3 |  | Nc1ncnc2c1c(-c1ccc(Oc3ccccc3)cc1)nn2C1CCN(C2CN(CC3CN(c4cc5c(cc4F)C(=O)N(C4CCC(=O)NC4=O)C5=O)C3)C2)CC1 (stereo not drawn) [Compound 106, 5-(3-((3-(4-(4-amino-3-(4-phenoxyphenyl)-1H-pyrazolo[3,4-d]pyrimidin-1-yl)piperidin-1-yl)azetidin-1-yl)methyl)azetidin-1-yl)-2-(2,6-dioxopiperidin-3-yl)-6-fluoroisoindoline-1,3-dione] |  | 119
133 | 5820 ± 2260 |  |  |  |  |  |  |  | Nc1ncnc2c1c(-c1ccc(Oc3ccccc3)cc1)nn2C1CCN(C2CN(CC3(F)CN(c4cc5c(cc4F)C(=O)N(C4CCC(=O)NC4=O)C5=O)C3)C2)CC1 (stereo not drawn) [Compound 115, 5-(3-((3-(4-(4-amino-3-(4-phenoxyphenyl)-1H-pyrazolo[3,4-d]pyrimidin-1-yl)piperidin-1-yl)azetidin-1-yl)methyl)-3-fluoroazetidin-1-yl)-2-(2,6-dioxopiperidin-3-yl)-6-fluoroisoindoline-1,3-dione] | > 40000 | 166
